In ChEMBL document CHEMBL1201862, “PubChem BioAssay data set” (2004):
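These data come from cells grown in 96-well plates and exposed to compound for 48 hours at five concentrations. Here, GI50 denotes the concentration required for 50% inhibition of growth.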 Active and inactive are the calls of the source. Cut-off read from the data, not from the text of the source: active = GI50 up to about 1.1 µM and inactive = higher.

What was measured:
Assay in all cases: NCI anticancer screen, dose series, 48 h
SF-295 = test system: SF-295
SNB-19 = test system: SNB-19
SK-OV-3 = test system: SK-OV-3
OVCAR-3 = test system: OVCAR-3
NCI-H522 = test system: NCI-H522
SK-MEL-28 = test system: SK-MEL-28
MDA-MB-231 = test system: MDA-MB-231
UACC-62 = test system: UACC-62
RPMI-8226 = test system: RPMI-8226
786-0 = test system: 786-0
RXF 393 = test system: RXF 393
M14 = test system: M14
LOX IMVI = test system: LOX IMVI
ACHN = test system: ACHN
SF-268 = test system: SF-268
NCI-H460 = test system: NCI-H460
SK-MEL-2 = test system: SK-MEL-2
CAKI-1 = test system: CAKI-1
T47D = test system: T47D
MDA-MB-435 = test system: MDA-MB-435

Row | Compound | GI50 (SF-295) | GI50 (SNB-19) | GI50 (SK-OV-3) | GI50 (OVCAR-3) | GI50 (NCI-H522) | GI50 (SK-MEL-28) | GI50 (MDA-MB-231) | GI50 (UACC-62) | GI50 (RPMI-8226) | GI50 (786-0) | GI50 (RXF 393) | GI50 (M14) | GI50 (LOX IMVI) | GI50 (ACHN) | GI50 (SF-268) | GI50 (NCI-H460) | GI50 (SK-MEL-2) | GI50 (CAKI-1) | GI50 (T47D) | GI50 (MDA-MB-435)
1 | Cc1c(C#N)c(N)n(C2OC(CO)C(O)C(O)C2O)c(=S)c1C#N (centres undefined) | > 100 µM (inactive) | > 100 µM (inactive) | 6.47 µM (inactive) | > 100 µM (inactive) | > 100 µM (inactive) | > 100 µM (inactive) | > 100 µM (inactive) | > 100 µM (inactive) | > 100 µM (inactive) | > 100 µM (inactive) | > 100 µM (inactive) | > 100 µM (inactive) | > 100 µM (inactive) | > 100 µM (inactive) | > 100 µM (inactive) | > 100 µM (inactive) |  |  |  | 
2 | O=C(Nc1cccc(C(F)(F)F)c1)C(=O)C(C(=O)c1ccc2ccccc2c1)C1OC(=O)c2ccccc21 (centres undefined) | 5.19 µM (inactive) | 6.25 µM (inactive) | 21.6 µM (inactive) | 16 µM (inactive) | 8.26 µM (inactive) | 6.79 µM (inactive) |  | 7.53 µM (inactive) | 3.68 µM (inactive) | 4.21 µM (inactive) | 4.16 µM (inactive) | 13 µM (inactive) | 4.23 µM (inactive) | 12.6 µM (inactive) | 5.05 µM (inactive) | 5.61 µM (inactive) | 8.57 µM (inactive) | 12.4 µM (inactive) | 8.99 µM (inactive) | 17.4 µM (inactive)
3 | CC(=O)Nc1nc2c(=O)c3ccccc3sc2s1 | > 100 µM (inactive) | > 100 µM (inactive) |  | > 100 µM (inactive) |  |  | > 100 µM (inactive) | > 100 µM (inactive) | > 100 µM (inactive) | > 100 µM (inactive) | > 100 µM (inactive) | > 100 µM (inactive) |  | > 100 µM (inactive) | > 100 µM (inactive) | > 100 µM (inactive) | > 100 µM (inactive) | > 100 µM (inactive) | > 100 µM (inactive) | 
4 | CCn1c2ccccc2c2cc(NC(=O)c3c(C)nc(O)nc3NCCNCCO)ccc21 | > 100 µM (inactive) | > 100 µM (inactive) | > 100 µM (inactive) | > 100 µM (inactive) | > 100 µM (inactive) | > 100 µM (inactive) | > 100 µM (inactive) | > 100 µM (inactive) |  | > 100 µM (inactive) | > 100 µM (inactive) | > 100 µM (inactive) | > 100 µM (inactive) | > 100 µM (inactive) | > 100 µM (inactive) | > 100 µM (inactive) |  | > 100 µM (inactive) | > 100 µM (inactive) | > 100 µM (inactive)
5 | O=C(N/N=C/c1ccccc1O)c1ccccc1Nc1ccccc1C(=O)N/N=C/c1ccccc1O | 0.975 µM (active) | 3.41 µM (inactive) | 3.1 µM (inactive) | 0.0546 µM (active) | 0.277 µM (active) | 0.182 µM (active) | 99.3 µM (inactive) | 1.05 µM (active) |  | 0.214 µM (active) |  | 0.953 µM (active) | 0.154 µM (active) | 0.394 µM (active) | 0.255 µM (active) | 0.371 µM (active) |  | 0.617 µM (active) | 0.859 µM (active) | 2.41 µM (inactive)
6 | COc1ccc(NC(=S)NC(=O)c2ccc3c(c2)Sc2ccccc2O3)c([N+](=O)[O-])c1 | 92 µM (inactive) | 21.9 µM (inactive) | 29.9 µM (inactive) | 22.6 µM (inactive) | 14.9 µM (inactive) | 40.1 µM (inactive) | 22.9 µM (inactive) | 30.3 µM (inactive) |  | 17.9 µM (inactive) | 19.3 µM (inactive) | 39.1 µM (inactive) | > 100 µM (inactive) | 21.4 µM (inactive) | 19.4 µM (inactive) | 43.9 µM (inactive) | 28.6 µM (inactive) | 39.1 µM (inactive) | 22.4 µM (inactive) | 55.8 µM (inactive)
7 | COC1(OC)CCCc2c1no[n+]2[O-] | > 100 µM (inactive) | > 100 µM (inactive) | > 100 µM (inactive) | > 100 µM (inactive) | > 100 µM (inactive) | > 100 µM (inactive) | > 100 µM (inactive) | > 100 µM (inactive) | > 100 µM (inactive) | > 100 µM (inactive) | > 100 µM (inactive) | > 100 µM (inactive) | > 100 µM (inactive) | > 100 µM (inactive) | > 100 µM (inactive) | > 100 µM (inactive) | > 100 µM (inactive) | > 100 µM (inactive) |  | > 100 µM (inactive)
8 | CN1CC[C@@]2(c3cccc(O)c3)CC(=O)/C(=C/c3ccc(Cl)c(Cl)c3)[C@H]1C2 | 2.03 µM (inactive) | 3.26 µM (inactive) |  | 2.23 µM (inactive) |  | 1.93 µM (inactive) |  |  | 1.15 µM (inactive) | 1.71 µM (inactive) | 2.66 µM (inactive) | 2.25 µM (inactive) | 1.48 µM (inactive) | 1.67 µM (inactive) | 2.63 µM (inactive) | 2.11 µM (inactive) |  |  |  | 1.41 µM (inactive)
9 | N#CC(c1ccccc1)N(CCc1ccccc1)C(=O)c1ccc(C(=O)N(CCc2ccccc2)C(C#N)c2ccccc2)cc1 (centres undefined) | 18.5 µM (inactive) | 30.5 µM (inactive) | 31.9 µM (inactive) | 17.1 µM (inactive) |  | 22.8 µM (inactive) | 24.6 µM (inactive) | 15.5 µM (inactive) |  | 22.6 µM (inactive) | 21.3 µM (inactive) | 24.4 µM (inactive) | 17.9 µM (inactive) | 24 µM (inactive) | 22 µM (inactive) | 18.5 µM (inactive) | 19.6 µM (inactive) | 30.6 µM (inactive) | 16.9 µM (inactive) | 22.9 µM (inactive)
10 | CC(C)(CN1CCCCC1)C(=O)CC(SCCS(=O)(=O)O)c1ccccc1 (centres undefined) | 10.9 µM (inactive) | 17.5 µM (inactive) | 55 µM (inactive) | 5.87 µM (inactive) | 3.11 µM (inactive) |  | 13.7 µM (inactive) | 14 µM (inactive) | 23.2 µM (inactive) | 11 µM (inactive) | 10.8 µM (inactive) | 9.38 µM (inactive) |  | 16.9 µM (inactive) | 10 µM (inactive) | 11.9 µM (inactive) | 37.9 µM (inactive) | 15.5 µM (inactive) |  | 11.3 µM (inactive)
11 | OCCCNc1ccnc2cc(Cl)ccc12 | > 100 µM (inactive) | > 100 µM (inactive) | > 100 µM (inactive) | > 100 µM (inactive) | > 100 µM (inactive) | > 100 µM (inactive) |  | > 100 µM (inactive) | > 100 µM (inactive) | > 100 µM (inactive) | > 100 µM (inactive) | > 100 µM (inactive) | > 100 µM (inactive) | > 100 µM (inactive) | > 100 µM (inactive) | > 100 µM (inactive) | > 100 µM (inactive) | > 100 µM (inactive) |  | 
12 | COC(=O)/C=C/c1cc(O)c2c(c1)[C@H](C(=O)OC)[C@@H](c1ccc(O)c(O)c1)O2 | 0.476 µM (active) | 0.0386 µM (active) | 0.319 µM (active) | 0.0339 µM (active) | 0.0706 µM (active) | 0.132 µM (active) |  | 0.0865 µM (active) | 0.0618 µM (active) | 0.152 µM (active) |  | 0.0386 µM (active) | 0.0757 µM (active) | 0.08 µM (active) | 0.635 µM (active) | 2.56 µM (inactive) | 0.0783 µM (active) | 0.544 µM (active) |  | < 0.01 µM (active)
13 | CC(C)N1CC2CN(Cc3ccccc3)CC(C1)C2=O | > 100 µM (inactive) | > 100 µM (inactive) | > 100 µM (inactive) | > 100 µM (inactive) | > 100 µM (inactive) | > 100 µM (inactive) | > 100 µM (inactive) | > 100 µM (inactive) | > 100 µM (inactive) | > 100 µM (inactive) | > 100 µM (inactive) | > 100 µM (inactive) | > 100 µM (inactive) | > 100 µM (inactive) | > 100 µM (inactive) | > 100 µM (inactive) | > 100 µM (inactive) | > 100 µM (inactive) |  | > 100 µM (inactive)
14 | Cc1c2c3cc(O)ccc3nc-2n(C)c2ccccc12 | 1.59 µM (inactive) | 1.83 µM (inactive) | 1.46 µM (inactive) | 2.37 µM (inactive) |  | 2.06 µM (inactive) |  | 1.39 µM (inactive) | 2.34 µM (inactive) | 0.53 µM (active) | 1.09 µM (active) | 1.58 µM (inactive) |  | 0.479 µM (active) | 1.62 µM (inactive) | 0.434 µM (active) |  |  | 2.68 µM (inactive) | 1.36 µM (inactive)
15 | CCOC(=O)CCC(C(=O)OCC)n1nnc2cc(Nc3c(C)[n+]([O-])c4cc(F)c(OCC)cc4[n+]3[O-])ccc21 (centres undefined) | 40.9 µM (inactive) | 34.8 µM (inactive) | > 100 µM (inactive) | > 100 µM (inactive) | > 100 µM (inactive) |  |  | > 100 µM (inactive) | > 100 µM (inactive) | 34.5 µM (inactive) | 14 µM (inactive) | > 100 µM (inactive) | > 100 µM (inactive) | 52.6 µM (inactive) | 25.5 µM (inactive) | > 100 µM (inactive) | 83.4 µM (inactive) | > 100 µM (inactive) | > 100 µM (inactive) | > 100 µM (inactive)
16 | CN1C(=O)N(C)C2(O)c3ccccc3C(=O)C12O (centres undefined) | > 100 µM (inactive) | > 100 µM (inactive) | > 100 µM (inactive) | > 100 µM (inactive) | > 100 µM (inactive) | > 100 µM (inactive) |  | > 100 µM (inactive) | > 100 µM (inactive) | > 100 µM (inactive) | > 100 µM (inactive) | > 100 µM (inactive) | > 100 µM (inactive) | > 100 µM (inactive) | > 100 µM (inactive) | > 100 µM (inactive) | > 100 µM (inactive) | > 100 µM (inactive) |  | 
